The target of test [1] is Cyclin-dependent kinase 2 (Homo sapiens) (UniProt P24941). The experiment in a line: Inhibition of human recombinant CDK2 at 40 nM related to control ULK1.
Test [2] concerns the target Tau-tubulin kinase 1 (Homo sapiens) (UniProt Q5TCY1). The experiment in a line: Inhibition of human recombinant TTBK1 at 40 nM in presence of ATP by radiometric assay relative to control.
Test [3] has as its target T1, Serine/threonine-protein kinase tousled-like 1 (Homo sapiens) (UniProt Q9UKI8).
T1 sequence (whole entry): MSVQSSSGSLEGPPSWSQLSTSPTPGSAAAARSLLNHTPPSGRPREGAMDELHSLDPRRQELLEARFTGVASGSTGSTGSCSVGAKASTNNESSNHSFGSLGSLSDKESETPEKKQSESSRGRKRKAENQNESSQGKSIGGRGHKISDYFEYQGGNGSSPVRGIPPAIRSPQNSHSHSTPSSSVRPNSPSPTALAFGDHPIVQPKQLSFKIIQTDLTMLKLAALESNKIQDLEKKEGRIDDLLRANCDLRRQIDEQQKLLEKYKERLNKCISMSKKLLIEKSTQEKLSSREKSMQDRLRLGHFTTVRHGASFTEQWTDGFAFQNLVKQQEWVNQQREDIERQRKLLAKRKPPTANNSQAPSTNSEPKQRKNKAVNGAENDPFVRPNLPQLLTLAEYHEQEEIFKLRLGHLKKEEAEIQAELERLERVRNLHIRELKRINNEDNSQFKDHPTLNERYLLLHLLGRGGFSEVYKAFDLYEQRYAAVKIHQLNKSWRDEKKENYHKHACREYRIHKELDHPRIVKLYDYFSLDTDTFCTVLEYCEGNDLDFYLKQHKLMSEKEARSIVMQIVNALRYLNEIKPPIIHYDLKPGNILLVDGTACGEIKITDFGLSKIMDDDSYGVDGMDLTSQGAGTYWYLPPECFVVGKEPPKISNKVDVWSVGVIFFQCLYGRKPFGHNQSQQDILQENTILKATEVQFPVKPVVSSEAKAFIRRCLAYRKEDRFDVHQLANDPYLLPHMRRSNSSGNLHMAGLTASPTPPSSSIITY
The experiment in a line: Inhibition of human recombinant TLK1 at 40 nM related to control ULK1.

The target of test [4] is Tyrosine-protein kinase Fyn (Homo sapiens) (UniProt P06241). The experiment in a line: Inhibition of human recombinant FYN at 500 nM in presence of ATP by radiometric assay relative to control.
Chain of Tyrosine-protein kinase Fyn (Homo sapiens) (P06241 2-537 limits assumed): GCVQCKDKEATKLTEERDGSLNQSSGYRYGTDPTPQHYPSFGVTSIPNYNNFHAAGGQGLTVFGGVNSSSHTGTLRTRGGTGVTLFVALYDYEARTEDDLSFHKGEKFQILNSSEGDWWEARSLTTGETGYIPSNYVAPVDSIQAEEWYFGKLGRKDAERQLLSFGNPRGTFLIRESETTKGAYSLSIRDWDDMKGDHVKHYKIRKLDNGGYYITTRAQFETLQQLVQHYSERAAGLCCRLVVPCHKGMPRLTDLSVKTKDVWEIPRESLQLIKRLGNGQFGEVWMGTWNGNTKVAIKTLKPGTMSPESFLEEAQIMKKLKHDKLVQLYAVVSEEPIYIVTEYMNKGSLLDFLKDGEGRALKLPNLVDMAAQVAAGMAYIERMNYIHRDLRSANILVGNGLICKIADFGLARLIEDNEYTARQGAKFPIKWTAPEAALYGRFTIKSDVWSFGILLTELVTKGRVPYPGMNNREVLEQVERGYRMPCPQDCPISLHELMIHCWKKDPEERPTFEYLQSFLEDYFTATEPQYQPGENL
Test [5] concerns the target Serine/threonine-protein kinase PAK 1 (Homo sapiens) (UniProt Q13153). The experiment in a line: Inhibition of human recombinant PAK1 at 500 nM related to control ULK1.
The target in test [6] is 3-phosphoinositide-dependent protein kinase 1 (Homo sapiens) (UniProt O15530). The experiment in a line: Inhibition of human recombinant PDK1 at 500 nM related to control ULK1.
Chain of 3-phosphoinositide-dependent protein kinase 1 (Homo sapiens) (O15530 whole entry, looked up): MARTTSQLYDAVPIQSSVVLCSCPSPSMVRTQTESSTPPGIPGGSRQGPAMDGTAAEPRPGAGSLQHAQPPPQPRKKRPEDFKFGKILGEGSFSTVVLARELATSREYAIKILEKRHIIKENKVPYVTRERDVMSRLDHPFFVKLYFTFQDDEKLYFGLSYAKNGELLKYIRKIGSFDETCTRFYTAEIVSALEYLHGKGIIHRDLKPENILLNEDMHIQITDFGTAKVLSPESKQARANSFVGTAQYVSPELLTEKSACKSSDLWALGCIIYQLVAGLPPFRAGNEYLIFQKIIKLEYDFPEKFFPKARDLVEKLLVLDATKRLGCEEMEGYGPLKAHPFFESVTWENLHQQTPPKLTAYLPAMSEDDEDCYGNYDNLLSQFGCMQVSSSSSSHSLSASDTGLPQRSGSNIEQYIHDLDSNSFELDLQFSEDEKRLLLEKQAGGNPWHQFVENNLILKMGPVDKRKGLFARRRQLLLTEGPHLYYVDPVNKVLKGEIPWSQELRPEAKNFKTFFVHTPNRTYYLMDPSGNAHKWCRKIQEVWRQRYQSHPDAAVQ
In test [7] the target is T2, MAP/microtubule affinity-regulating kinase 4 (Homo sapiens) (UniProt Q96L34).
T2 sequence (whole entry): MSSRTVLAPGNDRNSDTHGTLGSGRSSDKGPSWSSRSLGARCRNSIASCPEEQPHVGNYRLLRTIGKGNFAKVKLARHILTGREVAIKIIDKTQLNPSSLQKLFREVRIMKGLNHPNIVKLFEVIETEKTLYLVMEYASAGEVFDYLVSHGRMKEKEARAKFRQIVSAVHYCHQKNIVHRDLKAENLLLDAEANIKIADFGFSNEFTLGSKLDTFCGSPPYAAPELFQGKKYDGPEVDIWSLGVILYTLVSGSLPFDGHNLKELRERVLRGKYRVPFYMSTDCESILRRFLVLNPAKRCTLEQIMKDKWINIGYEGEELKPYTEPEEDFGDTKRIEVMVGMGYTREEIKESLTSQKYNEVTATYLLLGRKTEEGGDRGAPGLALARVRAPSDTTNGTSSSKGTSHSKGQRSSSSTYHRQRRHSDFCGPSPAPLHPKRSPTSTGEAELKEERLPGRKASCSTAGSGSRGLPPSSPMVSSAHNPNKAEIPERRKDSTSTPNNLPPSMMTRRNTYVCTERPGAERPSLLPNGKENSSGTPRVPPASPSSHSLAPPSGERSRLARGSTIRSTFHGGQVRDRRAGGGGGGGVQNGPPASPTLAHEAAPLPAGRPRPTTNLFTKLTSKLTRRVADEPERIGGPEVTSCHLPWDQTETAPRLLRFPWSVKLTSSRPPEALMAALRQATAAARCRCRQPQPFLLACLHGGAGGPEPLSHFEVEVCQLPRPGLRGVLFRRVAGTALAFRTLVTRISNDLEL
The experiment in a line: Inhibition of human recombinant MARK4 at 500 nM related to control ULK1.

The target of test [8] is Serine/threonine-protein kinase MAK (Homo sapiens) (UniProt P20794). The experiment in a line: Inhibition of human recombinant MAK at 15 nM in presence of ATP by radiometric assay relative to control.
Chain of Serine/threonine-protein kinase MAK (Homo sapiens) (P20794 whole entry, looked up): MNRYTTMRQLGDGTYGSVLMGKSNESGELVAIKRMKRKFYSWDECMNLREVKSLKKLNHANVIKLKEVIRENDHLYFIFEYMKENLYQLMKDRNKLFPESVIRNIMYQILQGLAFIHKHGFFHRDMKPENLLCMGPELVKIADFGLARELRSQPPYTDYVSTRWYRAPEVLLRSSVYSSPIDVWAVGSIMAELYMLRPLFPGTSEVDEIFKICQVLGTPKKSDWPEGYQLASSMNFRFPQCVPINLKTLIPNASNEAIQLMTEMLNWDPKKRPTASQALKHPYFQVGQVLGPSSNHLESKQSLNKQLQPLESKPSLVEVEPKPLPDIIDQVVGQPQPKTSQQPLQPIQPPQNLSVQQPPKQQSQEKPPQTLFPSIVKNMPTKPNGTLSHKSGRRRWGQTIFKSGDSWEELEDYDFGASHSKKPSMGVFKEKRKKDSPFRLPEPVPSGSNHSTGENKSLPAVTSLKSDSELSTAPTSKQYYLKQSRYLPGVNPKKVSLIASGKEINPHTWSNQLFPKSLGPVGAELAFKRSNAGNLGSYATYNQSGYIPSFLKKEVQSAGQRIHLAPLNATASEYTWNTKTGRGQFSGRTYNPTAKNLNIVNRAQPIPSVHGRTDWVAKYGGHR
The target in test [9] is Tyrosine-protein kinase Tec (Homo sapiens) (UniProt P42680). The experiment in a line: Inhibition of human recombinant TEC at 15 nM related to control ULK1.
Chain of Tyrosine-protein kinase Tec (Homo sapiens) (P42680 whole entry, looked up): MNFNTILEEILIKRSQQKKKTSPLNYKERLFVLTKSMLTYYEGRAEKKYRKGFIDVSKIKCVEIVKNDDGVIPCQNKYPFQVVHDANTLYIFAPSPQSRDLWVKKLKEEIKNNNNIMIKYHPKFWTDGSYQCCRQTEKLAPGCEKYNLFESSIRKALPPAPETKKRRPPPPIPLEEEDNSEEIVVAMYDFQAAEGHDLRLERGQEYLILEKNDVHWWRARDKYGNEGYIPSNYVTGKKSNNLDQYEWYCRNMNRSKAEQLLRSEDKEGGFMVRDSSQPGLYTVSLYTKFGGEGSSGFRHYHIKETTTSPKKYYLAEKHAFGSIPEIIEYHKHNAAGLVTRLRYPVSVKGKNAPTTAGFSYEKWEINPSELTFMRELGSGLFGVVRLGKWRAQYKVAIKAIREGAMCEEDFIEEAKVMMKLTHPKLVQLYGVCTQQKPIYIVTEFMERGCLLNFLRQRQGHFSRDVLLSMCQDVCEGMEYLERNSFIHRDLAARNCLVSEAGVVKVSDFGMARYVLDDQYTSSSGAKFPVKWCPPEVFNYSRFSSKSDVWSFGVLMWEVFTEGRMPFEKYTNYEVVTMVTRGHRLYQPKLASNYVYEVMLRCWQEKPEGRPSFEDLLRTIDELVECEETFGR
Test [10] deals with T3, cGMP-dependent protein kinase 2 (Homo sapiens) (UniProt Q13237).
T3 sequence (whole entry): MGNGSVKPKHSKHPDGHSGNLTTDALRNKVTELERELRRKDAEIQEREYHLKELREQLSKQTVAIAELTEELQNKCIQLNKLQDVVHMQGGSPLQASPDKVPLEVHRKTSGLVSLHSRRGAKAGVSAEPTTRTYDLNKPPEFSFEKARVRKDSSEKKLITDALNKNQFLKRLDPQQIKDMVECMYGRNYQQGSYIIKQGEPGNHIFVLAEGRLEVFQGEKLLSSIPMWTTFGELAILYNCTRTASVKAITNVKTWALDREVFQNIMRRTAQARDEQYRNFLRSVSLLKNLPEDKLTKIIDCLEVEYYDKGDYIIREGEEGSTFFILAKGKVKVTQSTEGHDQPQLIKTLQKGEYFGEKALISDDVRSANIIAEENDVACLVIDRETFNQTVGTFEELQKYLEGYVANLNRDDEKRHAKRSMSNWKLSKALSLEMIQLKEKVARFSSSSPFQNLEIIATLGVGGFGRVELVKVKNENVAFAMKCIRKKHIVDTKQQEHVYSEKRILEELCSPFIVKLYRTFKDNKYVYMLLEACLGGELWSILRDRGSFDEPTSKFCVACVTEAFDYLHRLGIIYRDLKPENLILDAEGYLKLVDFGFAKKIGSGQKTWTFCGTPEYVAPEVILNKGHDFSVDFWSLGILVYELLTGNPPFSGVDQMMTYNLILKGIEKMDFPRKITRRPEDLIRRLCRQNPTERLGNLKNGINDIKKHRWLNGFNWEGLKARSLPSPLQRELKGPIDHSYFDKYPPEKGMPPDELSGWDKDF
The experiment in a line: Inhibition of human recombinant PKG2 at 15 nM in presence of ATP by radiometric assay relative to control.

Test [11] deals with T1, Serine/threonine-protein kinase tousled-like 1 (Homo sapiens). The experiment in a line: Inhibition of human recombinant TLK1 at 15 nM in presence of ATP by radiometric assay relative to control.

Chain of Serine/threonine-protein kinase PAK 1 (Homo sapiens) (Q13153 whole entry, looked up): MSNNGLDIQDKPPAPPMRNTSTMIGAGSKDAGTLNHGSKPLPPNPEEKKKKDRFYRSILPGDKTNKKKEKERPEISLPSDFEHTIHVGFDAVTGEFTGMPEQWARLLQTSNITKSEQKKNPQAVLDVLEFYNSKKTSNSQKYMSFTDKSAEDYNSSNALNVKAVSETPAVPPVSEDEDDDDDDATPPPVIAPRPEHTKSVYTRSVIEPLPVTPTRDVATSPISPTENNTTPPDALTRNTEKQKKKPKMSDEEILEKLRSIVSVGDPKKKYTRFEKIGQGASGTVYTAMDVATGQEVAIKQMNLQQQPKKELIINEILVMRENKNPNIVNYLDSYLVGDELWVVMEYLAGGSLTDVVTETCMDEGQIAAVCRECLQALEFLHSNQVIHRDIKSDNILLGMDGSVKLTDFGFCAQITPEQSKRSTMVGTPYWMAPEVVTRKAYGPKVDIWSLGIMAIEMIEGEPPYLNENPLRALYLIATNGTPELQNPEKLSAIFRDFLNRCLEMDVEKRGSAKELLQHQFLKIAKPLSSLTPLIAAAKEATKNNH
Chain of Tau-tubulin kinase 1 (Homo sapiens) (Q5TCY1 whole entry): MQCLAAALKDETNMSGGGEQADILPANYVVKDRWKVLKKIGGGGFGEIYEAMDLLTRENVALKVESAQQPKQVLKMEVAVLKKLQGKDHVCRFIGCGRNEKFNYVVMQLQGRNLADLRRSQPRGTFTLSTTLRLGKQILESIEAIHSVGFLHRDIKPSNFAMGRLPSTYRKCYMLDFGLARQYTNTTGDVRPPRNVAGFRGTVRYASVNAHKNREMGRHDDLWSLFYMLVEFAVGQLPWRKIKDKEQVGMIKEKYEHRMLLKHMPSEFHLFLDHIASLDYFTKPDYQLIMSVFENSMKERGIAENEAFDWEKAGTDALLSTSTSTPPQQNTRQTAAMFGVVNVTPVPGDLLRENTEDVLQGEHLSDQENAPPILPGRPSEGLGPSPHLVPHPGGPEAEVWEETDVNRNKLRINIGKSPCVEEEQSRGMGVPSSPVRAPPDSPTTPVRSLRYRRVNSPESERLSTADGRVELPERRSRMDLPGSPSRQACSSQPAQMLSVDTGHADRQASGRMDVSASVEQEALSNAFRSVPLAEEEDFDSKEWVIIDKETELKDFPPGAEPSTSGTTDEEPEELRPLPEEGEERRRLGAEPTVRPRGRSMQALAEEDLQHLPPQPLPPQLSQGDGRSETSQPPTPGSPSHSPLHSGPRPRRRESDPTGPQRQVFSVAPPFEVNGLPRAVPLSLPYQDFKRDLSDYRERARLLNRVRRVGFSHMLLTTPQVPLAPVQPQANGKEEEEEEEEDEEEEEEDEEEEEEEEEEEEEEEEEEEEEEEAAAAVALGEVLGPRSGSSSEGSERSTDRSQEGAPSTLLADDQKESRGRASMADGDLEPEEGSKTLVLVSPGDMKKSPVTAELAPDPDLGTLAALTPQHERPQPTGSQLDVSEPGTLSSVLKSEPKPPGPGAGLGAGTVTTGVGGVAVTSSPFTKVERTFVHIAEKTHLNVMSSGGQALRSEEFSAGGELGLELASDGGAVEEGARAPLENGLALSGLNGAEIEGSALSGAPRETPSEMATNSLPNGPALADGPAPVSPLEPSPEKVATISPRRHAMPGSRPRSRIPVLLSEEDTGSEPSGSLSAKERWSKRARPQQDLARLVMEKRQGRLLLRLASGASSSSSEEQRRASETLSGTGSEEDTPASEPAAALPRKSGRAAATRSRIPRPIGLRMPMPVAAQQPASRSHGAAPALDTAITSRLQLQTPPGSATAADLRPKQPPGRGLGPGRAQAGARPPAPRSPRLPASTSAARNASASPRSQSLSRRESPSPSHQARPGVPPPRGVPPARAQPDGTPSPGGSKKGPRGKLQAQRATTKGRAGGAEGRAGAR

`O=C(N[C@@H](C1CC1)C(F)(F)F)c1cc(-c2cnn3cc(-c4ccc(F)cc4)cnc23)cs1`: the fold change (FC) in test [1] came out at 0.4; in test [3] it was 0. In test [2], the inhibition is 0%.
For `CNC(=O)c1ccccc1Oc1nc(Nc2cc(OC)c(OC)c(OC)c2)ncc1Br`, the inhibition in test [4] was 19%. Moreover, the values for the fold change (FC) in test [5], in [6] and in test [7] were 0.27, 0.05 and 0.78, respectively.
Turning to `CC(C)[C@H](NC(=O)c1cc(-c2cnn3cc(-c4ccc(OCCN5CCCCC5)cc4)cnc23)cs1)C(F)(F)F`, the inhibition in test [8] stood at 5%; in [10], 4%; in [11], 0%. Further, the fold change (FC) in test [9] was found to be 0.

In general, inhibition refers to the change of the read-out against control, counted positive when it falls.

The values are drawn from ChEMBL document CHEMBL5653631, “A Potent and Selective ULK1 Inhibitor Suppresses Autophagy and Sensitizes Cancer Cells to Nutrient Stress” (iScience, 2018).
